The test system of experiment [1] is THP-1 cells. The experiment can be described thus: TNFα release from THP-1 cells induced with meningococcal CPS pre-incubated with peptide (ELISA). It is filed as cell-based, human. Particulars: THP-1 cells induced overnight with serogroup B CPS-lpxA pre-incubated with 2 µg/ml peptide, 30 min, 37°C; Figure 1A. As for the experimental part:
(§1) Human THP-1 (macrophage-like cells) and murine RAW 264.7 (TLR4-sufficient), 23ScCr (TLR4-deficient) and HEK-TLR2/6/CD14 stably transfected cell lines were stimulated with meningococcal CPS polymers with or without pre-incubation with LL-37 and its analogs (Table 1). CPS polymers were purified from the LPS-deficient serogroup B Neisseria meningitidis lpxA mutant as well as other meningococcal serogroups A, B, C, W135 and Y. Purified CPS samples were freshly dissolved in pyrogen-free sterile H2O at 1 mg/ml stock concentration and vortexed for 2 min. Working CPS concentrations (ranging from 100 µg/ml to 50 ng/ml) were made in duplicate wells using sterile PBS by serial fold dilutions in the 96-well tissue culture plates (Becton Dickinson, Franklin Lakes, NJ) at 50 µl final volumes. […] Freshly grown THP-1 cells and HEK-TLR2/6 transfected cells as well as murine macrophages, each adjusted to 10^6 cell/ml and 250 µl aliquots were dispensed into each well at final 250×10^3 cell density in the designated 96-well plates. The plates were incubated overnight at 37°C with 5% CO2 and humidity. Supernatants from stimulated cells were harvested and stored at −20°C until use.
(§2) The cytokines TNFα, IL-6 and CXCL10 (IP-10), released from THP-1 cells, and IL-8, released from HEK-TLR2 transfected cells stimulated with meningococcal CPS polymers, were quantified by DuoSet ELISA (R&D Systems) as previously described.
On the technique in general: In an ELISA, binding on a coated surface is turned into a signal by an enzyme label.

The subject of a further experiment is TLR2. The experiment can be described thus: Neutralization of the TLR2-mediated response induced by phospholipid extract PL-lpxA. In kind it is cell-based. Particulars: phospholipid extraction from LOS-deficient meningococci.
For a further experiment, the system named is RAW 264.7 macrophages. The experiment is described as follows: Nitric oxide release from RAW 264.7 macrophages induced with meningococcal CPS (Griess method). It is filed as cell-based, murine. As for the experimental part:
(§3) Human THP-1 (macrophage-like cells) and murine RAW 264.7 (TLR4-sufficient), 23ScCr (TLR4-deficient) and HEK-TLR2/6/CD14 stably transfected cell lines were stimulated with meningococcal CPS polymers with or without pre-incubation with LL-37 and its analogs (Table 1). CPS polymers were purified from the LPS-deficient serogroup B Neisseria meningitidis lpxA mutant as well as other meningococcal serogroups A, B, C, W135 and Y. Purified CPS samples were freshly dissolved in pyrogen-free sterile H2O at 1 mg/ml stock concentration and vortexed for 2 min. Working CPS concentrations (ranging from 100 µg/ml to 50 ng/ml) were made in duplicate wells using sterile PBS by serial fold dilutions in the 96-well tissue culture plates (Becton Dickinson, Franklin Lakes, NJ) at 50 µl final volumes. Cationic peptides (2, 4 or 8 µg/ml) or PBS equivalent volumes were added to designated wells and pre-incubated for 30 min at 37°C. Freshly grown THP-1 cells and HEK-TLR2/6 transfected cells as well as murine macrophages, each adjusted to 10^6 cell/ml and 250 µl aliquots were dispensed into each well at final 250×10^3 cell density in the designated 96-well plates. The plates were incubated overnight at 37°C with 5% CO2 and humidity. Supernatants from stimulated cells were harvested and stored at −20°C until use.
Freshly grown adherent RAW 246.7 or 23ScCr (TLR4-deficient) macrophages were harvested, washed and re-suspended in Dulbecco's complete media, counted and adjusted to 10^6 cell/ml. 250 µl aliquots were then dispensed into each well of a 96-well plate at final 250×10^3 cell density prior to stimulation with purified CPS polymers with or without cationic peptides. The induced RAW 264.7 or 23ScCr macrophages were incubated overnight at 37°C with 5% CO2 and supernatants were harvested and saved. Nitric oxide release was quantified using the Greiss chemical method as previously described.
In general terms: Nitrite, measured by Griess reagent, commonly stands in for NO production.

The subject of experiment [2] is HEK-TLR2/6 stably transfected cells. The experiment is described as follows: IL-8 release from HEK-TLR2/6 stably transfected cells induced with meningococcal CPS pre-incubated with peptide (ELISA). It is filed as cell-based, human. As for the experimental part: as §3, §2
The test system of experiment [3] is THP-1 cells. The experiment is described as follows: IL-6 release from THP-1 cells induced with meningococcal CPS pre-incubated with peptide (ELISA). In kind it is cell-based, human. The conditions noted are these: THP-1 cells induced overnight with CPS-lpxA pre-incubated with 2 µg/ml peptide, 30 min, 37°C; Figure 1B. The method, then:
as §1, with “Supernatants from stimulated cells were harvested and stored at −20°C until use.” left out
as §2

For experiment [4], the system named is TLR4-sufficient and TLR4-deficient murine macrophages. The experiment can be described thus: CXCL10 (IP-10) release from murine macrophages induced with meningococcal CPS. It is filed as cell-based. As for the experimental part:
as §3, with “The plates were incubated overnight at 37°C with 5% CO2 and humidity. Supernatants from stimulated cells were harvested and stored at −20°C until use.” left out
as §2

For experiment [5], the system named is meningococcal CPS-lpxA polymers. The experiment is described as follows: Electrophoretic mobility shift assay (EMSA) of CPS complex with LL-37, CD14 and LBP. The conditions noted are these: 5 µg LL-37, 0.5 µg rCD14, 0.5 µg rLBP, 3 h 37°C; 8% native PAGE, Western blot; Figure 8 lane 5. It is filed as binding, Neisseria meningitidis. The method, then:
To assess binding of CPS to LL-37 in the presence of human CD14 and LBP, an EMSA assay using native gel conditions was performed. Serogroup B CPS purified from a LOS-deficient meningococcal lpxA strain were dissolved in sterile H2O at 1 mg/ml concentration and 20 µl were transferred into an Eppendorf tube mixed with 10 µl (5 µg) of LL-37, 10 µl (0.5 µg) of human rCD14 and 10 µl (0.5 µg) of rLBP (R&D Systems) in […] and incubated for 3 h at 37°C. An aliquot of 7.5 µl of the mixed complexes were transferred into a new Eppendorf tube and mixed with an equal volume of sample buffer (0.1 M Tris-glycine buffer containing 20% glycerol and bromophenol blue) and 15 µl of the mixture were loaded on 8% native polyacrylamide gel electrophoresis (PAGE) without SDS as previously described. Electrophoresis was performed with Tris-glycine buffer pH 8.8 without SDS and run for 2 h at 4°C. The gel-shifting of CPS complexes was detected by Western blot method using biotinylated anti CD14 and anti LBP antibodies (R&D Systems) diluted 1∶1500× with blocking buffer.

The subject of experiment [6] is N. gonorrhoeae strain FA 19. Particulars: N. gonorrhoeae FA19 (non-encapsulated); assays in triplicate. The method, then:
The peptides were dissolved in 0.01 % (v/v) acetic acid and stored at −20°C prior to use. Antibacterial assays were performed as described previously and used N. gonorrhoeae strain FA 19. All assays were performed in triplicate and values are reported as the minimal inhibitory concentration (MIC).

≈ marks a conversion by molar mass, not a printed value.

The MIC is the lowest concentration found to suppress growth. Higher therefore signals a need for much substance. As to `CC[C@H](C)[C@H](NC(=O)[C@H](CCCCN)NC(=O)[C@H](CCC(=O)O)NC(=O)[C@H](CCCCN)NC(=O)[C@H](CO)NC(=O)[C@H](CCCCN)NC(=O)[C@H](CCCNC(=N)N)NC(=O)[C@H](Cc1ccccc1)NC(=O)[C@H](Cc1ccccc1)NC(=O)[C@H](CC(=O)O)NC(=O)CNC(=O)[C@H](CC(C)C)NC(=O)[C@@H](N)CC(C)C)C(=O)NCC(=O)N[C@@H](CCCCN)C(=O)N[C@@H](CCC(=O)O)C(=O)N[C@@H](Cc1ccccc1)C(=O)N[C@@H](CCCCN)C(=O)N[C@@H](CCCNC(=N)N)C(=O)N[C@H](C(=O)N[C@H](C(=O)N[C@@H](CCC(N)=O)C(=O)N[C@@H](CCCNC(=N)N)C(=O)N[C@H](C(=O)N[C@@H](CCCCN)C(=O)N[C@@H](CC(=O)O)C(=O)N[C@@H](Cc1ccccc1)C(=O)N[C@@H](CC(C)C)C(=O)N[C@@H](CCCNC(=N)N)C(=O)N[C@@H](CC(N)=O)C(=O)N[C@@H](CC(C)C)C(=O)N[C@H](C(=O)N1CCC[C@H]1C(=O)N[C@@H](CCCNC(=N)N)C(=O)N[C@H](C(=O)N[C@@H](CCC(=O)O)C(=O)N[C@@H](CO)C(=O)O)[C@@H](C)O)C(C)C)[C@@H](C)CC)C(C)C)[C@@H](C)CC` [LL-37], the TNFα release entry with THP-1 cells [1] was “inhibited”. For the same molecule, the “Neutralization of biologic activity of PL-lpxA” value in the experiment on TLR2 was “failed to neutralize”. In addition, the “Nitric oxide release by CPS-lpxA complexes used in gel-shift” value with RAW 264.7 macrophages (RAW 264 macrophages, complexes with CD14, LBP and LL-37, data not shown) is given as “significant reduction in nitric oxide release”. Moreover, in the experiment on RAW 264.7 macrophages (RAW 264 pre-treated with 10 µg/ml LL-37 for 30 min, washed, then CPS-lpxA 50 µg/ml, nitric oxide read-out, Figure S2), the “Cytokine release after pre-treatment of macrophages” value was “did not affect cytokine release”. In addition, the Nitric oxide release entry in the experiment on RAW 264.7 macrophages (RAW 264.7 induced with CPS-lpxA pre-incubated with 2 µg/ml peptide, nitrite after 24 h, Figure 1D) was “inhibited”. Further, the IL-8 release result is “inhibited” in experiment [2] (HEK-TLR2/6 cells induced with CPS-lpxA pre-incubated with 2 µg/ml peptide, Figure 1C) and “significant reduction in IL-8 release” in experiment [2] (HEK/TLR2/6 cells stimulated with different meningococcal CPS structures pre-incubated with LL-37). The “Neutralization of CPS-induced IL-8 release” value in experiment [2] (HEK-TLR2/6 cells, serogroup A CPS pre-incubated with 4 µg/ml peptide, Figure 2A) is “neutralized”. Also, the “IL-8 release induced by MAPS” value in experiment [2] (HEK/TLR2/6 cells, vaccine grade serogroup A CPS (MAPS) pre-incubated with 2 µg/ml of LL-37, Figure 2B) was “significantly reduced”. For the same molecule, in the experiment with THP-1 cells [3], the IL-6 release result was “inhibited”. Further, in experiment [4], the “CXCL10 (IP-10) release” value is recorded as “inhibited”. In experiment [5], the “Gel-shift of CPS-lpxA-CD14-LBP complexes” value is recorded as “caused a gel-shift”. The molecule also registered an MIC in experiment [6] of 7.8 µg/mL (≈ 1.74 µM).

The values above are taken from paper PMC2964311, “The Human Host Defense Peptide LL-37 Interacts with Neisseria meningitidis Capsular Polysaccharides and Inhibits Inflammatory Mediators Release” (PLoS ONE, 2010).
